According to paper PMC3098721 (Molecular microbiology, 2010):

Biological target: PqsH (MBP-PqsH) (Pseudomonas aeruginosa, UniProt Q02N79)
Experiment: PQS fluorescence after ethyl acetate extraction, Michaelis-Menten fit
Assay type: biochemical
Conditions: NADH and O2 constant at saturating levels; pH 8.0

PqsH (MBP-PqsH), sequence (Q02N79 2-382): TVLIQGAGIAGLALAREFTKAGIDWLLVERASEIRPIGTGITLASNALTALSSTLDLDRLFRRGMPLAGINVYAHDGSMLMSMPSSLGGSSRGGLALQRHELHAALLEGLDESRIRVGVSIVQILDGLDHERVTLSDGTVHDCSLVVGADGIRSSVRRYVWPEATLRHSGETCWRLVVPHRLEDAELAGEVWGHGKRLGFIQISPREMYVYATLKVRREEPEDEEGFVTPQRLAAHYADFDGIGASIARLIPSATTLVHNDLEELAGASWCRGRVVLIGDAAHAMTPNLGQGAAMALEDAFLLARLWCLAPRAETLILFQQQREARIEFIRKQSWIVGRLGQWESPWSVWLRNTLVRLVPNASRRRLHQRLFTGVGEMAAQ

CCCc1cc(=O)c2ccccc2[nH]1 [C3-HHQ]
Km: almost entirely due to elevated Km values
